Assay results published in PubChem BioAssay (NCI).
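A five-concentration, 48-hour dose response in 96-well plates underlies each endpoint, interpolated linearly between surrounding concentrations. GI50 = concentration required for 50% inhibition of growth. At the TGI there is no net growth.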

What was measured:
Assay in all cases: NCI tumour cell line growth inhibition, 48 h
NCI-H23 lung = tested on: NCI-H23 lung
DMS 114 small cell lung = tested on: DMS 114 small cell lung
KM12 colon = tested on: KM12 colon
HOP-18 NSCLC = tested on: HOP-18 NSCLC
NCI-H460 lung = tested on: NCI-H460 lung
SF-268 CNS = tested on: SF-268 CNS
KM20L2 colon = tested on: KM20L2 colon
OVCAR-8 ovarian = tested on: OVCAR-8 ovarian
DLD-1 colon = tested on: DLD-1 colon
MDA-MB-231 breast = tested on: MDA-MB-231 breast
786-0 renal = tested on: 786-0 renal
DU-145 prostate = tested on: DU-145 prostate

SMILES | TGI (NCI-H23 lung) [µM] | TGI (DMS 114 small cell lung) [µM] | TGI (KM12 colon) [µM] | TGI (HOP-18 NSCLC) [µM] | TGI (NCI-H460 lung) [µM] | TGI (SF-268 CNS) [µM] | TGI (KM20L2 colon) [µM] | TGI (OVCAR-8 ovarian) [µM] | TGI (DLD-1 colon) [µM] | TGI (MDA-MB-231 breast) [µM] | TGI (786-0 renal) [µM] | TGI (DU-145 prostate) [µM] | GI50 (MDA-MB-231 breast) [µM] | GI50 (NCI-H23 lung) [µM] | GI50 (NCI-H460 lung) [µM] | GI50 (SF-268 CNS) [µM] | GI50 (OVCAR-8 ovarian) [µM] | GI50 (DU-145 prostate) [µM]
CN(C)CC(CC1=C(CC(CN(C)C)N(C)C)CCC1)N(C)C (stereo not drawn) | > 100 | > 100 | > 100 | > 100 | > 100 | > 100 | > 100 | > 100 | > 100 |  |  |  |  |  |  |  |  | 
CC1=NN(c2cccc(Cl)c2)C2(SCC(=O)N2c2nc3ccccc3s2)/C1=C\c1cccs1 (stereo not drawn) | 43.5 |  | 94.6 |  | 69.1 | 44 |  | 51.8 |  | 87 | 41.1 | > 100 |  |  |  |  |  | 
Fc1ccc(C(OCCN2CCC3CCC(C2)N3C/C=C/c2ccco2)c2ccc(F)cc2)cc1 (stereo not drawn) | 24 |  | 30.6 |  | 24.5 | 25.9 |  | 19.6 |  | 23.6 | 22.2 | 34.6 |  |  |  |  |  | 
O=C(c1cccs1)N(C(=S)OC12CC3CC(CC(C3)C1)C2)c1ccccc1 | > 100 |  | > 100 |  | > 100 | > 100 |  | > 100 |  | > 100 | > 100 | > 100 |  |  |  |  |  | 
O=C(/C=C/c1ccccc1)NNC(=O)c1c(Cl)c(Cl)c(Cl)c(Cl)c1-c1nc2ccccc2[nH]1 | 60 |  |  |  | 61 | > 100 |  | > 100 |  |  | 73.8 | > 100 |  |  |  |  |  | 
O=c1[nH]nc(NNc2ccccc2)c2nnn(C3CCCCC3)c12 | > 100 |  | > 100 |  | > 100 |  |  | > 100 |  | > 100 |  | > 100 |  |  |  |  |  | 
COc1cc2c(cc1O)CC[C@@H]1[C@@H]2CC[C@]2(C)[C@@H](OCCN(C)C)CC[C@@H]12 | 1.12 |  |  |  | 2.09 | 5.29 |  | 5.88 |  | 0.595 |  | 5.35 | 0.153 | 0.202 | 0.219 | 0.353 | 0.488 | 0.182
Cc1c(N2C(=O)CS(=O)(=O)C2c2cccc(Oc3ccccc3)c2)c(=O)n(-c2ccccc2)n1C (stereo not drawn) | > 100 |  | > 100 |  | > 100 | > 100 |  | > 100 |  | > 100 |  | > 100 |  |  |  |  |  | 
Cc1ccccc1C(=O)N/N=C/c1ccc(Sc2nccn2C)c([N+](=O)[O-])c1 | > 100 |  | > 100 |  | > 100 | > 100 |  | > 100 |  | > 100 | > 100 | > 100 |  |  |  |  |  | 
COc1nc(C#CC2(O)CCCCC2)nc(OC)n1 | 27.1 |  | 30.2 |  | 78.6 | 40.7 |  | 39.8 |  | 15 | > 100 | 19.6 |  |  |  |  |  | 
Nc1ccccc1S(=O)(=O)c1ccccc1 | > 100 | > 100 | > 100 | > 100 | > 100 | > 100 | > 100 | > 100 | > 100 |  |  |  |  |  |  |  |  | 
CC(=O)C1=C(C)N(c2ccc(C)cc2)C2(O)C=CC(=O)C3C(=O)N(c4ccccc4)C(=O)C132 (stereo not drawn) | 46.1 |  | 74.2 |  | > 100 | > 100 |  | 59.2 |  | 42.8 | > 100 | 74.3 |  |  |  |  |  | 
CCCNC(=O)CCC(C)C1CCC2C3C(C[C@H](OC(C)=O)[C@]12C)[C@@]1(C)CCC2(C[C@H]1C[C@H]3OC(C)=O)OOC1(CC[C@]3(C)C4C[C@H](OC(C)=O)[C@]5(C)C(C(C)CCC(=O)NCCC)CCC5C4[C@H](OC(C)=O)C[C@@H]3C1)OO2 (stereo partly drawn) | > 100 |  | > 100 |  | > 100 | > 100 |  | > 93.9 |  | > 83.4 | > 100 | > 100 |  |  |  |  |  | 
CC12CC3OC(=O)C1COC14OC5(C2C1=O)C(O)(CCC1C4CC(O)C2(O)CC=CC(=O)C12C)C(=O)OC35C (stereo not drawn) | > 100 |  | > 100 |  | > 100 | > 100 |  | > 100 |  | > 100 | > 100 | > 100 |  |  |  |  |  | 
O=C(OCN1C(=O)C2C3C=CC(C2C1=O)C1C2C(=O)N(COC(=O)C4CCCN4)C(=O)C2C31)C1CCCN1 (stereo not drawn) | > 100 | > 60.6 | > 100 | > 100 | > 56.5 | > 78.5 | > 100 | 67.5 | > 69.7 |  | > 60.6 |  |  |  |  |  |  | 
CC1CC[C@@]2(OC1)OC1C[C@H]3[C@@H]4CC=C5CC(OC6OC(CO)C(OC7OC(CO)C(O)C(OC8OCC(O)C(O)C8O)C7OC7OC(CO)C(O)C(O)C7O)C(O)C6O)CCC5(C)[C@H]4CCC3(C)C1[C@@H]2C (stereo partly drawn) | 11.7 |  | 10.5 |  | 11.8 | 9.45 |  | 8.95 |  | 9.29 | 19.4 | 9.48 |  |  |  |  |  | 
COc1cccc2c1Cc1cc(-c3ccccc3)[n+](C)n1-2 | 32.4 |  | 34.3 |  | 40.4 | > 100 |  | > 100 |  | 81.7 | 84.2 | > 100 |  |  |  |  |  | 
CNC(=O)OCc1c(CO)nc(SC)n1C | > 100 | > 100 | > 100 | > 100 | > 100 | > 100 | > 100 | > 100 | > 100 |  |  |  |  |  |  |  |  | 
O=C(/C=C/c1ccc(O)c(-c2cc(C(=O)/C=C/c3ccc(O)cc3)c(O)cc2O)c1)c1ccc(O)cc1O | > 50 |  | 31.7 |  | > 50 | > 50 |  | 24.7 |  | > 50 | > 50 | > 50 |  |  |  |  |  | 
CNc1ccc2c(c1)[C@@]1(C)c3ccccc3[C@@H](C2)N1C | 61.5 |  | 78.3 |  | 39.9 | > 100 |  |  |  | 62.6 | 34.3 | > 100 |  |  |  |  |  | 
